According to PMC7144209, “Design, synthesis and anticancer activity of naphthoquinone derivatives” (Journal of Enzyme Inhibition and Medicinal Chemistry, 2020):

Experiments:
MGC-803 = test: MTT cell viability assay, MGC-803 cells; assay type: cell-based; details: Homo sapiens, MGC-803, 48 h, n = 3
Experimental: (§1) MGC-803, SGC-7901, U87 and SMMC-7721 cell lines were cultured in DMEM supplemented with 10% foetal bovine serum, 100 IU/mL penicillin/streptomycin. The cells were incubated in an atmosphere containing 5% CO2 at 37 °C.
(§2) MGC-803, SGC-7901, U87 and SMMC-7721 cells were plated in 96-well plate at 7000 per well. Cells were incubated with the different concentrations of the compounds for 48 h. Subsequently, MTT (0.5 mg/mL) were used to test the cell viability, then 150 μL DMSO was added to each well after cells were incubated for 4 h and the absorbance was measured at 492 nm.

L02 = test: MTT cell viability assay, L02 cells; assay type: cell-based; details: Homo sapiens, n = 3
SMMC-7721 = test: MTT cell viability assay, SMMC-7721 cells; assay type: cell-based; details: Homo sapiens, 48 h, n = 3
Experimental: as §1, §2

U87 = test: MTT cell viability assay, U87 cells; assay type: cell-based; details: Homo sapiens, U-87 MG, 48 h, n = 3
Experimental: as §1, §2

SGC-7901 = test: MTT cell viability assay, SGC-7901 cells; assay type: cell-based, human; details: Homo sapiens, SGC-7901, 48 h, n = 3
Experimental: as §1, §2

[1] = tested on: SGC-7901, MGC-803, SMMC-7721, U-87 cell lines; test: MTT anticancer activity, summary in words over the cell line panel; assay type: cell-based; details: MTT assay
Experimental: as §2
Compounds 1–24 were detected for anticancer activities against SGC-7901, MGC-803, SMMC-7721, U-87 cell lines in vitro by the MTT assay, and ADM was used as the positive control. From Table 1, when the phenolic hydroxyls of naphthoquinone moiety were converted to ether, the activity was missing. […] So colony formation assay of this compound (Figure 4) was used to investigate the effect of it on cell proliferation in SGC-7901 cells. The experiment examined the ability for producing colonies after the cells were treated with the cell death agents[35]^,[36].

IC50 (MGC-803)	melting point	IC50 (SMMC-7721)	IC50 (U87)	IC50 (SGC-7901)	Compound	IC50 (L02)	anticancer activity (in words) [1]
> 100 µM	113 °C	> 100 µM	> 100 µM	> 100 µM	COc1ccccc1NC(=O)CCC(=O)OC(CC=C(C)C)C1=CC(=O)c2c(O)ccc(O)c2C1=O (stereo not drawn) [Compound 15, 1-(5,8-dihydroxy-1,4-dioxo-1,4-dihydronaphthalen-2-yl)-4-methylpent-3-en-1-yl-4-((2-methoxyphenyl)amino)-4-oxobutanoate]	> 100 µM	–
10.2 ± 1.3 µM	105 °C	14.8 ± 0.1 µM	> 100 µM	10.7 ± 1.8 µM	CC(C)=CCC(OC(=O)CCC(=O)Nc1ccc(Br)cc1)C1=CC(=O)c2c(O)ccc(O)c2C1=O (stereo not drawn) [Compound 14, 1-(5,8-dihydroxy-1,4-dioxo-1,4-dihydronaphthalen-2-yl)-4-methylpent-3-en-1-yl-4-((4-bromophenyl)amino)-4-oxobutanoate]	16.2 ± 1.7 µM	–
> 100 µM	54 °C	> 100 µM	> 100 µM	> 100 µM	COc1cc(/C=C/CC(=O)OC(CC=C(C)C)C2=CC(=O)c3c(O)ccc(O)c3C2=O)cc(OC)c1OC (stereo not drawn) [Compound 5, 1-(5,8-dihydroxy-1,4-dioxo-1,4-dihydronaphthalen-2-yl)-4-methylpent-3-en-1-yl (E)-4-(3,4,5-trimethoxyphenyl)but-3-enoate]	> 100 µM	–
6.7 ± 2.4 µM	–	15.9 ± 0.2 µM	3.8 ± 1.7 µM	20.8 ± 0.5 µM	CC(C)=CCC(OC(=O)CCC(=O)NCCc1cccc(Cl)c1)C1=CC(=O)c2c(O)ccc(O)c2C1=O (stereo not drawn) [Compound 17, 1-(5,8-dihydroxy-1,4-dioxo-1,4-dihydronaphthalen-2-yl)-4-methylpent-3-en-1-yl-4-((3-chlorophenethyl)amino)-4-oxobutanoate]	11.4 ± 1.8 µM	good activity
> 100 µM	102 °C	> 100 µM	> 100 µM	> 100 µM	CC(C)=CCC(OC(=O)COc1ccc(Cl)cc1)C1=CC(=O)c2c(O)ccc(O)c2C1=O (stereo not drawn) [Compound 6, 1-(5,8-dihydroxy-1,4-dioxo-1,4-dihydronaphthalen-2-yl)-4-methylpent-3-en-1-yl-2-(4-chlorophenoxy)acetate]	> 100 µM	–
5.9 ± 2.6 µM	127 °C	24.3 ± 1.7 µM	5.41 ± 0.67 µM	5.6 ± 2.6 µM	CC(C)=CCC(OC(=O)CCC(=O)Nc1cccc2ccccc12)C1=CC(=O)c2c(O)ccc(O)c2C1=O (stereo not drawn) [Compound 16, 1-(5,8-dihydroxy-1,4-dioxo-1,4-dihydronaphthalen-2-yl)-4-methylpent-3-en-1-yl-4-(naphthalen-1-ylamino)-4-oxobutanoate]	13 ± 2.4 µM	–
7.9 ± 1.8 µM	115 °C	12.4 ± 2.6 µM	12.3 ± 2.8 µM	11.1 ± 1.2 µM	COc1ccc(NC(=O)CCC(=O)OC(CC=C(C)C)C2=CC(=O)c3c(O)ccc(O)c3C2=O)cc1 (stereo not drawn) [Compound 10, 1-(5,8-dihydroxy-1,4-dioxo-1,4-dihydronaphthalen-2-yl)-4-methylpent-3-en-1-yl-4-((4-methoxyphenyl)amino)-4-oxobutanoate]	11.9 ± 0.6 µM	–
9.7 ± 2.3 µM	120 °C	14.4 ± 1.5 µM	9.68 ± 2.3 µM	33.6 ± 2.1 µM	CC(C)=CCC(OC(=O)CCC(=O)N1CCCCC1)C1=CC(=O)c2c(O)ccc(O)c2C1=O (stereo not drawn) [Compound 7, 1-(5,8-dihydroxy-1,4-dioxo-1,4-dihydronaphthalen-2-yl)-4-methylpent-3-en-1-yl-4-oxo-4-(piperidin-1-yl)butanoate]	36.8 ± 4.1 µM	–
0.48 ± 0.06 µM	–	0.46 ± 0.63 µM	0.57 ± 0.32 µM	0.72 ± 0.12 µM	COc1cccc2c1C(=O)c1c(O)c3c(c(O)c1C2=O)C[C@@](O)(C(=O)CO)C[C@@H]3O[C@H]1C[C@H](N)[C@H](O)[C@H](C)O1 [ADM, Adriamycin, reference compound]	> 100 µM	–
> 100 µM	–	> 100 µM	> 100 µM	> 100 µM	CCCCCCN(CCCCCC)C(=O)CCC(=O)OC(CC=C(C)C)C1=CC(=O)c2c(O)ccc(O)c2C1=O (stereo not drawn) [Compound 23, 1-(5,8-dihydroxy-1,4-dioxo-1,4-dihydronaphthalen-2-yl)-4-methylpent-3-en-1-yl 4-(dihexylamino)-4-oxobutanoate]	> 100 µM	–
4.5 ± 1.1 µM	60 °C	15.6 ± 3.3 µM	8 ± 0.85 µM	10.6 ± 4.3 µM	CC(C)=CCC(OC(=O)CCc1ccccc1)C1=CC(=O)c2c(O)ccc(O)c2C1=O (stereo not drawn) [Compound 3, 1-(5,8-dihydroxy-1,4-dioxo-1,4-dihydronaphthalen-2-yl)-4-methylpent-3-en-1-yl-3-phenylpropanoate]	13.6 ± 1.5 µM	–
3.5 ± 1.4 µM	–	18.6 ± 3.6 µM	5.2 ± 1.4 µM	13.3 ± 0.6 µM	CC(C)=CCC(OC(=O)CCC(=O)NCCc1ccc(F)cc1)C1=CC(=O)c2c(O)ccc(O)c2C1=O (stereo not drawn) [Compound 20, 1-(5,8-dihydroxy-1,4-dioxo-1,4-dihydronaphthalen-2-yl)-4-methylpent-3-en-1-yl 4-((4-fluorophenethyl)amino)-4-oxobutanoate]	12.3 ± 0.5 µM	good activity
10.4 ± 0.7 µM	105 °C	16.7 ± 1.8 µM	10 ± 1.6 µM	20 ± 3.9 µM	CC(C)=CCC(OC(=O)CCC(=O)N1CCOCC1)C1=CC(=O)c2c(O)ccc(O)c2C1=O (stereo not drawn) [Compound 8, 1-(5,8-dihydroxy-1,4-dioxo-1,4-dihydronaphthalen-2-yl)-4-methylpent-3-en-1-yl 4-morpholino-4-oxobutanoate]	> 50 µM	–
40.8 ± 1.9 µM	104 °C	50.1 ± 0.8 µM	20.6 ± 0.6 µM	38.5 ± 0.7 µM	CC(C)=CCC(OC(=O)/C=C\C(=O)N1CCOCC1)C1=CC(=O)c2c(O)ccc(O)c2C1=O (stereo not drawn) [Compound 24, 1-(5,8-dihydroxy-1,4-dioxo-1,4-dihydronaphthalen-2-yl)-4-methylpent-3-en-1-yl (Z)-4-morpholino-4-oxobut-2-enoate]	> 100 µM	–
5.7 ± 2.4 µM	134 °C	17.9 ± 1 µM	9.1 ± 2.5 µM	7.6 ± 2.3 µM	CC(C)=CCC(OC(=O)CCC(=O)NCCc1ccc(Br)cc1)C1=CC(=O)c2c(O)ccc(O)c2C1=O (stereo not drawn) [Compound 19, 1-(5,8-dihydroxy-1,4-dioxo-1,4-dihydronaphthalen-2-yl)-4-methylpent-3-en-1-yl-4-((4-bromophenethyl)amino)-4-oxobutanoate]	8.5 ± 0.4 µM	–
6.9 ± 3.9 µM	91 °C	15.4 ± 0.4 µM	6.1 ± 0.6 µM	14.8 ± 1.6 µM	CC(C)=CCC(OC(=O)CCC(=O)NCCc1ccccc1F)C1=CC(=O)c2c(O)ccc(O)c2C1=O (stereo not drawn) [Compound 21, 1-(5,8-dihydroxy-1,4-dioxo-1,4-dihydronaphthalen-2-yl)-4-methylpent-3-en-1-yl 4-((2-fluorophenethyl)amino)-4-oxobutanoate]	16 ± 2.2 µM	–
> 100 µM	85 °C	–	65.7 ± 2.7 µM	75.1 ± 0.4 µM	CC(C)=CCC(OC(=O)C=Cc1ccccc1)C1=CC(=O)c2c(O)ccc(O)c2C1=O (stereo not drawn) [Compound 4, 1-(5,8-dihydroxy-1,4-dioxo-1,4-dihydronaphthalen-2-yl)-4-methylpent-3-en-1-yl cinnamate]	> 100 µM	–
9.4 ± 0.4 µM	77 °C	46.5 ± 1.7 µM	40.7 ± 4.7 µM	19.8 ± 1.8 µM	CCN(CC)C(=O)CCC(=O)OC(CC=C(C)C)C1=CC(=O)c2c(O)ccc(O)c2C1=O (stereo not drawn) [Compound 22, 1-(5,8-dihydroxy-1,4-dioxo-1,4-dihydronaphthalen-2-yl)-4-methylpent-3-en-1-yl 4-(diethylamino)-4-oxobutanoate]	> 50 µM	–
> 100 µM	94.3 °C	> 100 µM	> 100 µM	> 100 µM	COc1ccc(OC)c2c1C(=O)C=C(C(O)CC=C(C)C)C2=O (stereo not drawn) [Compound 1, 2-(1-hydroxy-4-methylpent-3-en-1-yl)-5,8-dimethoxynaphthalene-1,4-dione]	> 100 µM	–
> 100 µM	60 °C	> 100 µM	> 100 µM	> 100 µM	CC(C)=CCC(O)C1=CC(=O)c2c(OCc3ccccc3)ccc(OCc3ccccc3)c2C1=O (stereo not drawn) [Compound 2, 5,8-bis(benzyloxy)-2-(1-hydroxy-4-methylpent-3-en-1-yl)naphthalene-1,4-dione]	> 100 µM	–
6.6 ± 4.7 µM	97.8 °C	17.9 ± 1.6 µM	7.7 ± 4.4 µM	23.7 ± 0.5 µM	CC(C)=CCC(OC(=O)CCC(=O)NCCc1ccccc1Cl)C1=CC(=O)c2c(O)ccc(O)c2C1=O (stereo not drawn) [Compound 18, 1-(5,8-dihydroxy-1,4-dioxo-1,4-dihydronaphthalen-2-yl)-4-methylpent-3-en-1-yl-4-((2-chlorophenethyl)amino)-4-oxobutanoate]	20.2 ± 2 µM	–
